Among the data in ChEMBL document CHEMBL1151876, “Constrained (l-)-S-adenosyl-l-homocysteine (SAH) analogues as DNA methyltransferase inhibitors” (Bioorg Med Chem Lett, 2009) are IC50 and inhibition values, retold here.

pIC50: −log10 of the molar value.

Test [1] has as its target T1, DNA (cytosine-5)-methyltransferase 1 (Homo sapiens, UniProt P26358).
Description: Inhibition of human recombinant DNMT1
For test [2], the target named is DNA (cytosine-5)-methyltransferase 3B (Homo sapiens, UniProt Q9UBC3).
Description: Inhibition of human recombinant DNMT3b2
The target of test [3] is T1, DNA (cytosine-5)-methyltransferase 1. Particulars: 45 uM.
Description: Inhibition of human recombinant DNMT1 at 45 uM

T1 sequence (P26358 whole entry): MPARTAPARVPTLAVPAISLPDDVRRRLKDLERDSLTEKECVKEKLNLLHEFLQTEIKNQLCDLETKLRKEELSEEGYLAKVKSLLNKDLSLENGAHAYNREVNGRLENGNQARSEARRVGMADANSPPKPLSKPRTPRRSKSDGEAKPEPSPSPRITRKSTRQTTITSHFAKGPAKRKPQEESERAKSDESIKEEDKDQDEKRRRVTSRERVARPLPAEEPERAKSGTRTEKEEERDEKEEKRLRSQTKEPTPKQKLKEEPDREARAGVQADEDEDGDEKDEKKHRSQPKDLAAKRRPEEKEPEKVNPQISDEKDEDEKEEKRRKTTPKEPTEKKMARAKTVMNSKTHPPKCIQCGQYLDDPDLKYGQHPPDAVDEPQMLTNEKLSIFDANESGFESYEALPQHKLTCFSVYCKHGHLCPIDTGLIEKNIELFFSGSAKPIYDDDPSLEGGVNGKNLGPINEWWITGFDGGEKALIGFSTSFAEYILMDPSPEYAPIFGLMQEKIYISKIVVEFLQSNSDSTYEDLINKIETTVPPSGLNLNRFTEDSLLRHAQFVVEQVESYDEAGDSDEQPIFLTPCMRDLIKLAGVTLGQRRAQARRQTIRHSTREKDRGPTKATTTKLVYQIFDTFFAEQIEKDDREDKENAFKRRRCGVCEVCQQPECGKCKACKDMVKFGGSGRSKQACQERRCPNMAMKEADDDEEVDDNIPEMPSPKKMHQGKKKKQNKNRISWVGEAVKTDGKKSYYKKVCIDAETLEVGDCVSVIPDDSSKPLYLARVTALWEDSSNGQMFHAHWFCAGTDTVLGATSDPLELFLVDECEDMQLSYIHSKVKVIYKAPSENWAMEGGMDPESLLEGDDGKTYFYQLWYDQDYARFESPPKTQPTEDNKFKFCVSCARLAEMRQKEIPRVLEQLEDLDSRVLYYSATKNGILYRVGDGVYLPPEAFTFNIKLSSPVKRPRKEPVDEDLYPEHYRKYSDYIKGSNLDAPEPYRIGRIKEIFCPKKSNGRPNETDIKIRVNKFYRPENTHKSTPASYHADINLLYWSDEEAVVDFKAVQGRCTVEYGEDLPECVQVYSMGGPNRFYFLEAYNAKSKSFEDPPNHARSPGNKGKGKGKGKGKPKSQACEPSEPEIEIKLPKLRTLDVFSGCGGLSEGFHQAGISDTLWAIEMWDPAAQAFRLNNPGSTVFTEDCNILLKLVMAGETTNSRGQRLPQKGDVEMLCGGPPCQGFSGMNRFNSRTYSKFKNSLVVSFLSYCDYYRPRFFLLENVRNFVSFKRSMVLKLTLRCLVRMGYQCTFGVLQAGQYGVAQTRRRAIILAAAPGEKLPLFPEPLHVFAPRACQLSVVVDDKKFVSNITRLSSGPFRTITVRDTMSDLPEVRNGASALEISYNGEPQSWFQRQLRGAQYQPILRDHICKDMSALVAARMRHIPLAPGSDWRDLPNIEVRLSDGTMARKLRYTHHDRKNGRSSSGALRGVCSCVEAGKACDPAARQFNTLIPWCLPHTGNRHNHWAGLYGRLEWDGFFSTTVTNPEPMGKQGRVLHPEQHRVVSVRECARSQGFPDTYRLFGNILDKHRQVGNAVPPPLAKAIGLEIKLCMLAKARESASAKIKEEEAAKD

As for `COC(=O)[C@@H]1C[C@H](SC[C@H]2O[C@@H](n3cnc4c(N)ncnc43)[C@H](O)[C@@H]2O)CN1C`, in test [1], the negative logarithm of the IC50 (pIC50) was 5.35.

As to `O=C(O)[C@@H]1C[C@H](SC[C@H]2O[C@@H](n3cnc4c(NCCc5ccc(-c6ccccc6)cc5)nc(Cl)nc43)[C@H](O)[C@@H]2O)CN1`, in test [1], the negative-log IC50 (pIC50) is 5.60.

Consider `Nc1nc(Cl)nc2c1ncn2C1O[C@H](CS[C@@H]2CN[C@H](C(=O)O)C2)[C@@H](O)[C@H]1O` (single isomer, unassigned), for which the negative logarithm of the IC50 (pIC50) in test [1] was 6.09.

`Nc1ncnc2c1ncn2[C@@H]1O[C@H](CS[C@@H]2CN[C@H](C(=O)O)C2)[C@@H](O)[C@H]1O`: the values for the negative-log IC50 (pIC50) in test [1] and in test [2] were 5.96 and 6.52, respectively.

`Nc1nc(Cl)nc2c1ncn2C1O[C@H](CS[C@H]2CCNC2)[C@@H](O)[C@H]1O` (single isomer, unassigned) showed a pIC50 in test [2] below 4.35.

On to `Nc1ncnc2c1ncn2[C@@H]1O[C@H](CS[C@H]2CCCNC2)[C@@H](O)[C@H]1O`, for which the inhibition in test [3] came to 18%.

As for `NC(=O)[C@@H]1C[C@H](SC[C@H]2O[C@@H](n3cnc4c(N)ncnc43)[C@H](O)[C@@H]2O)CN1`, the inhibition in test [3] turned out to be 1%.

In test [1], `CN1C[C@@H](SC[C@H]2O[C@@H](n3cnc4c(N)ncnc43)[C@H](O)[C@@H]2O)C[C@H]1C(=O)O` showed a negative logarithm of the IC50 (pIC50) below 4.00.

With `CN1CC[C@@H](SC[C@H]2O[C@@H](n3cnc4c(N)ncnc43)[C@H](O)[C@@H]2O)C1`, in test [1], the pIC50 was below 5.00.

Consider `Nc1ncnc2c1ncn2[C@@H]1O[C@H](CS[C@@H]2CCNC2)[C@@H](O)[C@H]1O`, for which the pIC50 in test [1] was 5.32; in test [2] it was 4.92.

As for `COC(=O)[C@@H]1C[C@H](SC[C@H]2O[C@@H](n3cnc4c(N)ncnc43)[C@H](O)[C@@H]2O)CN1`, in test [1], the pIC50 was 5.40.

For the molecule `Nc1ncnc2c1ncn2[C@@H]1O[C@H](CS[C@@H]2CCN[C@H](C(=O)O)C2)[C@@H](O)[C@H]1O`, the pIC50 in test [1] is below 4.00.

In turn, `Nc1ncnc2c1ncn2[C@@H]1O[C@H](CSCC[C@H](N)C(=O)O)[C@@H](O)[C@H]1O` [S-ADENOSYLHOMOCYSTEINE] had a pIC50 in test [2] of 6.70.

As for `Nc1ncnc2c1ncn2[C@@H]1O[C@H](CS[C@H]2CN[C@H](C(=O)O)C2)[C@@H](O)[C@H]1O`, the negative logarithm of the IC50 (pIC50) in test [1] is below 4.00; in test [2], 4.27.

Molecule `Nc1ncnc2c1ncn2[C@@H]1O[C@H](CS[C@H]2CCN[C@H](C(=O)O)C2)[C@@H](O)[C@H]1O` showed a pIC50 in test [1] of 5.10.

The molecule `Nc1ncnc2c1ncn2[C@@H]1O[C@H](CS[C@@H]2CCC[C@@H]2N)[C@@H](O)[C@H]1O` had a pIC50 in test [1] of 4.03.

Take `Nc1ncnc2c1ncn2[C@@H]1O[C@H](CSC2CNC2)[C@@H](O)[C@H]1O`: the pIC50 in test [2] was below 4.00.

With `NCCCSC[C@H]1O[C@@H](n2cnc3c(N)ncnc32)[C@H](O)[C@@H]1O`, the figures for the pIC50 in test [1] and in test [2] were below 4.35 and 4.77, respectively.

For `Nc1ncnc2c1ncn2[C@@H]1O[C@H](CS[C@H]2CCNC2)[C@@H](O)[C@H]1O`, the negative logarithm of the IC50 (pIC50) is 4.36 in test [1] and 4.59 in test [2].

Take `Nc1ncnc2c1ncn2[C@@H]1O[C@H](CS[C@H]2CCN[C@@H](C(=O)O)C2)[C@@H](O)[C@H]1O`: the pIC50 in test [1] is below 4.00.

With `NCCSC[C@H]1O[C@@H](n2cnc3c(N)ncnc32)[C@H](O)[C@@H]1O`, the pIC50 in test [1] is 4.74.

The pIC50 is the IC50 on a negative log10 scale, so that one unit is a factor of ten. A lower pIC50 goes with a large IC50. For orientation: inhibition means the drop in the measured response relative to a control, in per cent. High values mean a strong effect, low ones a weak effect.
